ChEMBL document CHEMBL5046257, “Synthesis and Evaluation of Bakuchiol Derivatives as Potent Anti-inflammatory Agents in Vitro and in Vivo” (J Nat Prod, 2022)
Activity calls are given as the source filed them. The calls are words filed in the database; no cut-off is given here.

Columns and labels:
[1] = Cytotoxicity against mouse RAW 264.7 cells assessed as decreased cell viability measured after 24 hrs by MTT assay; format: toxicity, cell-based, RAW264.7
[2] = system: RAW264.7; assay: Antiinflammatory activity in mouse RAW264.7 cells assessed as downregulation of LPS-induced JNK phosphorylation at 5 to 10 uM for 1 hrs followed by LPS stimulation for 23 hrs by Western blot analysis; format: functional, cell-based; conditions: dose 5-10 µM, time 24.0 hrs
[3] = system: RAW264.7; assay: Antiinflammatory activity in mouse RAW264.7 cells assessed as downregulation of LPS-induced MAPK phosphorylation at 5 to 10 uM for 1 hrs followed by LPS stimulation for 23 hrs by Western blot analysis; format: functional, cell-based; conditions: dose 5-10 µM, time 24.0 hrs
[4] = system: RAW264.7; assay: Antiinflammatory activity in mouse RAW 264.7 cells assessed as inhibition of LPS-induced IL-6 production at 20 uM for 1 hrs followed by LPS stimulation for 23 hrs by ELISA; format: functional, cell-based; conditions: time 24.0 hrs
[5] = system: RAW264.7; assay: Antiinflammatory activity in mouse RAW 264.7 cells assessed as inhibition of LPS-induced NO production at 20 uM for 1 hrs pretreatment followed by LPS stimulation for 23 hrs by Griess reagent assay; format: functional, cell-based; conditions: time 24.0 hrs
[6] = system: RAW264.7; assay: Antiinflammatory activity in mouse RAW 264.7 cells assessed as inhibition of LPS-induced TNF-alpha production at 20 uM for 1 hrs followed by LPS stimulation for 23 hrs by ELISA; format: functional, cell-based; conditions: time 24.0 hrs
[7] = system: RAW264.7; assay: Antiinflammatory activity in mouse RAW 264.7 cells assessed as inhibition of LPS-induced IL-6 production at 5 to 10 uM for 1 hrs followed by LPS stimulation for 23 hrs by ELISA; format: functional, cell-based; conditions: dose 5-10 µM, time 24.0 hrs
[8] = system: RAW264.7; assay: Antiinflammatory activity in mouse RAW 264.7 cells assessed as inhibition of LPS-induced TNF-alpha production at 5 to 10 uM for 1 hrs followed by LPS stimulation for 23 hrs by ELISA; format: functional, cell-based; conditions: dose 5-10 µM, time 24.0 hrs
[9] = system: RAW264.7; assay: Antiinflammatory activity against mouse RAW264.7 cells assessed as inhibition of LPS-induced COX2 expression at 5 to 10 uM for 1 hrs followed by LPS stimulation for 23 hrs by western blot analysis; format: functional, cell-based; conditions: dose 5-10 µM, time 24.0 hrs
[10] = system: RAW264.7; assay: Antiinflammatory activity against mouse RAW264.7 cells assessed as inhibition of LPS-induced iNOS expression at 5 to 10 uM for 1 hrs followed by LPS stimulation for 23 hrs by western blot analysis; format: functional, cell-based; conditions: dose 5-10 µM, time 24.0 hrs
[11] = system: RAW264.7; assay: Antiinflammatory activity against mouse RAW264.7 cells assessed as inhibition of LPS-induced COX2 expression at 10 uM for 1 hrs followed by LPS stimulation for 23 hrs by western blot analysis; format: functional, cell-based; conditions: time 24.0 hrs
[12] = system: RAW264.7; assay: Antiinflammatory activity against mouse RAW264.7 cells assessed as inhibition of LPS-induced iNOS expression at 10 uM for 1 hrs followed by LPS stimulation for 23 hrs by western blot analysis; format: functional, cell-based; conditions: time 24.0 hrs
[13] = system: RAW264.7; assay: Antiinflammatory activity in mouse RAW264.7 cells assessed as inhibition of LPS-induced ROS production at 5 to 10 uM for 1 hrs followed by LPS stimulation for 23 hrs by DCFH-DA staining based fluorescence assay; format: functional, cell-based; conditions: dose 5-10 µM, time 24.0 hrs
[14] = system: RAW264.7; assay: Antiinflammatory activity in mouse RAW264.7 cells assessed as upregulation of LPS-induced NRF2 expression at 5 to 10 uM for 1 hrs followed by LPS stimulation for 23 hrs by Western blot analysis; format: functional, cell-based; conditions: dose 5-10 µM, time 24.0 hrs
[15] = system: RAW264.7; assay: Antiinflammatory activity in mouse RAW264.7 cells assessed as upregulation of LPS-induced HO-1 expression at 5 to 10 uM for 1 hrs followed by LPS stimulation for 23 hrs by Western blot analysis; format: functional, cell-based; conditions: dose 5-10 µM, time 24.0 hrs
[16] = system: RAW264.7; assay: Antiinflammatory activity in mouse RAW264.7 cells assessed as inhibition of LPS-induced NFkB p65 activation at 5 to 10 uM for 1 hrs followed by LPS stimulation for 23 hrs by Western blot analysis; format: functional, cell-based; conditions: dose 5-10 µM, time 24.0 hrs
[17] = system: RAW264.7; assay: Antiinflammatory activity in mouse RAW264.7 cells assessed as downregulation of LPS-induced ERK phosphorylation at 5 to 10 uM for 1 hrs followed by LPS stimulation for 23 hrs by Western blot analysis; format: functional, cell-based; conditions: dose 5-10 µM, time 24.0 hrs
[18] = species: Danio rerio; assay: Antiinflammatory activity in zebrafish assessed as inhibition of LPS-induced ROS production at 2.5 to 5 uM for 24 hrs by laser confocal microscope; format: functional, organism-based; conditions: dose 2.5-5 µM
[19] = species: Danio rerio; assay: Antiinflammatory activity in zebrafish assessed as inhibition of LPS-induced NO production at 2.5 to 5 uM for 24 hrs by laser confocal microscope; format: functional, organism-based; conditions: dose 2.5-5 µM
[20] = system: RAW264.7; assay: Antiinflammatory activity in mouse RAW264.7 cells assessed as inhibition of LPS-induced IKKbeta phosphorylation at 5 to 10 uM for 1 hrs followed by LPS stimulation for 23 hrs by Western blot analysis; format: functional, cell-based; conditions: dose 5-10 µM, time 24.0 hrs

SMILES | IC50 at 24 h [1] | further results
C=C[C@@](C)(/C=C/c1ccc(OC(=O)c2cn(-c3ccc(C)cc3)nn2)cc1)CCC=C(C)C | 37.2 µM | –
C=C[C@@](C)(/C=C/c1ccc(OCC(=O)N2CCCC2)cc1)CCC=C(C)C | 40.5 µM | Activity [2]: Active; Activity [3]: Active; inhibition [4]: Active; inhibition [5]: Active; inhibition [6]: Active; inhibition [7]: Dose-Dependent Effect; inhibition [8]: Dose-Dependent Effect; inhibition [9]: Dose-Dependent Effect; inhibition [10]: Dose-Dependent Effect; inhibition [11]: Active; inhibition [12]: Active; inhibition [13]: Dose-Dependent Effect; Activity [14]: Dose-Dependent Effect; Activity [15]: Dose-Dependent Effect; inhibition [16]: Active; Activity [17]: Active; inhibition [18]: Dose-Dependent Effect; inhibition [19]: Dose-Dependent Effect; inhibition [20]: Active
C=C[C@@](C)(/C=C/c1ccc(OCc2cn(-c3ccc(C)cc3)nn2)cc1)CCC=C(C)C | 86.9 µM | –
C=C[C@@](C)(/C=C/c1ccc(OCc2cn(Cc3ccccc3)nn2)cc1)CCC=C(C)C | 480 µM | –
C=C[C@@](C)(/C=C/c1ccc(OCc2cn(Cc3ccc(F)cc3)nn2)cc1)CCC=C(C)C | 157 µM | –
C=C[C@@](C)(/C=C/c1ccc(OC(=O)c2cc3cc(OC)ccc3[nH]2)cc1)CCC=C(C)C | 329 µM | –
C=C[C@@](C)(/C=C/c1ccc(OC(=O)c2cc3ccccc3[nH]2)cc1)CCC=C(C)C | 108 µM | –
C=C[C@@](C)(/C=C/c1ccc(OC(=O)c2cc3cc(Cl)ccc3[nH]2)cc1)CCC=C(C)C | 110 µM | –
C=C[C@@](C)(/C=C/c1ccc(OCC(=O)Nc2ccccc2)cc1)CCC=C(C)C | 63.3 µM | –
C=C[C@@](C)(/C=C/c1ccc(OCC(=O)NC(c2ccccc2)P(=O)(OCC)OCC)cc1)CCC=C(C)C (stereo not given in full) | 33.4 µM | –
C=C[C@@](C)(/C=C/c1ccc(O)cc1)CCC=C(C)C [BAKUCHIOL] | 97.2 µM | –
C=C[C@@](C)(/C=C/c1ccc(OCc2cn(Cc3ccc(OC)cc3)nn2)cc1)CCC=C(C)C | 273 µM | –
C=C[C@@](C)(/C=C/c1ccc(OCC(=O)NC(c2ccc(F)cc2)P(=O)(OCC)OCC)cc1)CCC=C(C)C (stereo not given in full) | 110 µM | –
C=C[C@@](C)(/C=C/c1ccc(OCc2cn(Cc3ccc(C)cc3)nn2)cc1)CCC=C(C)C | 371 µM | –
C=C[C@@](C)(/C=C/c1ccc(OC(=O)c2ccc3ncccc3c2)cc1)CCC=C(C)C | 88 µM | –
C=C[C@@](C)(/C=C/c1ccc(OCc2cn(-c3ccccc3)nn2)cc1)CCC=C(C)C | 172 µM | –

SMILES | IC50 at 24 h [1] | further results
C=C[C@@](C)(/C=C/c1ccc(OC(=O)/C=C/c2ccccc2)cc1)CCC=C(C)C | 157 µM | –
C=C[C@@](C)(/C=C/c1ccc(OCC(=O)Nc2ccc(F)cc2)cc1)CCC=C(C)C | 59.1 µM | –
C=C[C@@](C)(/C=C/c1ccc(OCc2cn(-c3ccc(Cl)cc3)nn2)cc1)CCC=C(C)C | 47.6 µM | –
C=C[C@@](C)(/C=C/c1ccc(OC(=O)c2cn(-c3ccc(F)cc3)nn2)cc1)CCC=C(C)C | 79.9 µM | –
C=C[C@@](C)(/C=C/c1ccc(OCc2cn(-c3ccc(F)cc3)nn2)cc1)CCC=C(C)C | 233 µM | –
C=C[C@@](C)(/C=C/c1ccc(OC(=O)c2cn(-c3ccc(OC)cc3)nn2)cc1)CCC=C(C)C | 64.7 µM | –
C=C[C@@](C)(/C=C/c1ccc(OCc2cn(Cc3ccc(Cl)cc3)nn2)cc1)CCC=C(C)C | 327 µM | –
C=C[C@@](C)(/C=C/c1ccc(OCC(=O)N2CCCCC2)cc1)CCC=C(C)C | 58.6 µM | –
C=C[C@@](C)(/C=C/c1ccc(OCc2cn(-c3ccc(C(F)(F)F)cc3)nn2)cc1)CCC=C(C)C | 82.1 µM | –
C=C[C@@](C)(/C=C/c1ccc(OCC(=O)Nc2ccc(Cl)cc2)cc1)CCC=C(C)C | 50.7 µM | –
C=C[C@@](C)(/C=C/c1ccc(OCc2cn(-c3ccc(OC)cc3)nn2)cc1)CCC=C(C)C | 47.4 µM | –
C=C[C@@](C)(/C=C/c1ccc(OC(=O)c2cn(-c3ccccc3)nn2)cc1)CCC=C(C)C | 69.9 µM | –
C=C[C@@](C)(/C=C/c1ccc(OCC(=O)NC(c2ccc(C)cc2)P(=O)(OCC)OCC)cc1)CCC=C(C)C (stereo not given in full) | 209 µM | –
C=C[C@@](C)(/C=C/c1ccc(OCC(=O)Nc2cccc3cccnc23)cc1)CCC=C(C)C | 649 µM | –
C=C[C@@](C)(/C=C/c1ccc(OC(=O)c2cn(-c3ccc(Cl)cc3)nn2)cc1)CCC=C(C)C | 115 µM | –
